Experiments:
Xi-GFP mEpiSCs [1] = test: Flow cytometric analysis of GFP and CD31 expression in Xi-GFP mEpiSCs; format: cell-based, mouse; conditions: for % of GFP/CD31 double positive cells compared with LIF alone: added to N2B27 medium containing LIF; for LIF induced Xi-reactivation (GFP/CD31 double positive cells): LIF-containing mEpiSC medium with or without Activin A and bFGF
Experimental: To more quantitatively assess the proportion of GFP positive cells under these three culture conditions, Fluorescence Activated Cell Sorting (FACS) was employed. For flow cytometric analyses, Xi-GFP mEpiSCs were dissociated into single cell suspensions with Accutase. The single cells were stained with a CD31 (PECAM) antibody (Clone MEC13.3/BD Bioscience (Franklin Lakes, N.J., USA)) conjugated with allophycocyanin, or APC. The stained cells were analyzed using MACSQuant VYB (Miltenyi Biotec, San Diego, Calif., USA) and FlowJo (FlowJo LLC, Ashland, Oreg., USA) software. […] In the LIF+2i and SNL-CM, the GFP^+ populations were also CD31^+, a marker for mouse naïve pluripotent stem cells (FIG. 1, panel C).
Xi-GFP mEpiSCs were dissociated with Accutase into single cell suspensions, and the single cells were seeded on a fibronectin-coated plate in the Activin A and bFGF-containing medium with two different cell densities (20,000 cells or 3,000 cells/well of a 6-well plate) one day before starting conversion experiments. Twenty-four hours after the seeding, fresh primed media was replenished as a negative control or changed to naïve medium. Assay medium was changed every 24 hours and GFP fluorescent was checked daily by microscopic inspection for eight (with 20,000 starting cells) to 13 days (with 3,000 starting cells).
The naïve media contained 1,000 units LIF (Millipore), 10 ng/ml BMP4 (R&D systems), 64 μg/ml L-ascorbic acid 2-phosphate (Sigma), 10 nM to 100 nM LPA (Avanti Polar Lipids (Alabaster, Ala., USA)), and/or 100 nM OMPT (Avanti Polar Lipids (Alabaster, Ala., USA)) in N2B27 basal medium purchased from StemCells Inc (Palo Alto, Calif., USA) or prepared in house for use in FIGS. 4 and 5. The in house N2B27 medium consists of 500 ml DMEM/F12+GlutaMax (Life Technologies (Carlsbad, Calif., USA), 500 ml Neurobasal medium (Life Technologies (Carlsbad, Calif., USA)), 5 ml N2 supplement (Life Technologies (Carlsbad, Calif., USA)), 10 ml B27 supplement (Life Technologies (Carlsbad, Calif., USA)), 666 μl 7.5% BSA Fraction V (Life Technologies (Carlsbad, Calif., USA)) and 5 ml GlutaMax (Life Technologies (Carlsbad, Calif., USA)/1 liter. At the end of the conversion experiments, the conversion efficiencies were evaluated by counting GFP^+ cell clusters or by flow cytometer.

hiPSCs [2] = test: Reversion of primed hiPSCs containing episomal reprogramming factors in reversion media; format: cell-based, human; conditions: for conversion to cells with features of naïve pluripotency (dome shaped colonies): 1 μM OMPT, 10 ng/mL LIF in StemFit, no bFGF, TGF-β, laminin-511
Source text: These naive-like cells formed three-dimensional dome shaped colonies characteristic of naïve pluripotent stem cells and very different from the colony morphology of primed hiPSCs. […] In addition, they provide the basis for further investigation of whether modulating the LPA-LPAR-RHO signaling axis can be used to generate and maintain human naïve pluripotent stem cells.

hiPSCs [3] = test: Reversion of primed integration-free hiPSCs in lipid containing reversion media; format: cell-based, human
Experimental: Human iPSCs were generated with episomal vectors expressing Oct4, Sox2, Klf4, myc, Lin28 and shRNA against […] using the methods described by Okita et al. (2011) Nature Methods 8(5):409-412. The hiPSCs were grown in primed media containing bFGF and TGF-β in StemFit basal medium (or mTeSR orE8). Primed hiPSCs were then switched to reversion media and cultured on laminin-511 under hypoxic conditions. The reversion media contained 10 ng/mL LIF, 10 ng/mL Activin A, 100 ng/mL bFGF, 1 μM PD0325901 MEK inhibitor, 1 μM CHIR99021 GSK3β inhibitor, and 2 mM N-acetyl cysteine in StemFit basal medium with various concentrations of lipids (2 μM OMPT, 1 μM OMPT, 1 μM OMPT+20 nM LPA, or no lipids). After 5 to 7 days, three-dimensional dome shaped colonies, characteristic of naïve pluripotent stem cells, were observed. […] The naïve cells also expressed NANOG, KLF4, KLF17 and TFCP2L1, markers for naïve human pluripotent stem cells (FIG. 9).

[4] = tested on: primed pluripotent stem cells; test: Cell morphology/toxicity of primed PSCs grown in various concentrations of LPA or OMPT
Experimental: To optimize the concentration of LPA and OMPT, primed pluripotent stem cells were grown in various concentrations of LPA or OMPT.

Xi-GFP mEpiSCs [5] = test: Xi-reactivation in Xi-GFP mEpiSC reporter line, GFP positive clusters by fluorescence microscopy; format: cell-based, mouse; conditions: exogenous addition to SNL-CM and non-CM+LIF
Experimental: During somatic cell reprogramming the human Xi is reliably reactivated in hiPSCs reprogrammed on SNL feeder cells. […] It was first determined whether the culture conditions that promoted reactivation of the Xi during reprogramming also promoted Xi-reactivation of mouse EpiSCs, which are XaXi. Results of culturing an X-GFP mEpiSC reporter line, in which the green fluorescent protein (GFP) gene is located on the X-chromosome in different media were assayed by fluorescence microscopy. Gillich et al., (2012) Cell Stem Cell 10(4):[…], Bao et al., (2009) Nature 461(7268):1292-1295. Xi-GFP mEpiSCs were kindly provided by Drs. Azim Surani and Siqin Bao and were routinely maintained on a fibronectin (Sigma, St. Louis, Mo., USA)-coated plate (feeder free condition) in N2B27 basal medium (Ndiff 227 medium from StemCells Inc (Palo Alto, Calif., USA) and later from Clontech (Mountain View, Calif., USA) supplemented with 20 ng/ml Activin A (R&D systems (Minneapolis, Minn., USA)) and 12 ng/ml bFGF (Millipore (Billerica, Mass., USA)). Cells were passaged every two to three days at a 1:20 dilution from a previous culture after detached/scraped and dissociated with Accutase (Millipore (Billerica, Mass., USA)).
Cells remain GFP negative when cultured under feeder-free mEpiSC conditions, N2B27 medium containing Activin A and bFGF on fibronectin coated plates (FIG. 1, panels A and B). […]

**Q.** How did the “% of GFP^+ cells” value (Xi-GFP mEpiSCs [1]; added to medium containing LIF+LPA or LIF alone) turn out when Cc1noc(-c2ccc(CSCCC(=O)O)cc2)c1NC(=O)OC(C)c1ccccc1Cl (stereo not shown) [Ki16425] was run?
**A.** significantly reduces

**Q.** For CCCCCCCC/C=C\CCCCCCCC(=O)OC[C@H](COP(O)(O)=S)OC [OMPT, 1-oleoyl-2-methyl-sn-glycero-3-phosphothioate], which “conversion to cells with features of naïve pluripotency (dome shaped colonies)” value (hiPSCs [2]) is on record?
**A.** cells with features of naïve pluripotency were observed

**Q.** What about the “time for which three-dimensional dome shaped colonies were maintained” value (hiPSCs [3]; 2 μM or 1 μM OMPT, or 1 μM OMPT+20 nM LPA, laminin-511, hypoxic, approximately five passages) of the same molecule?
**A.** more than one month

**Q.** What about the “conversion of hiPSCs to cells with characteristics of naïve PSCs (colony morphology)” value (hiPSCs [3]; compared to control media containing no lipids, FIG. 7) of the same molecule?
**A.** converts the hiPSCs to cells with characteristics of naïve PSCs

**Q.** With NC(=O)c1ccc(-c2nc(-c3ccc4c(c3)OCO4)c(-c3ccccn3)[nH]2)cc1 [SB431542] as the molecule, how does the “% of GFP/CD31 double positive cells” value (Xi-GFP mEpiSCs [1]; added to MEF-CM containing LIF) read?
**A.** enhances induction of the double positive cells

**Q.** How did the “% of GFP/CD31 double positive cells compared with LIF alone” value (Xi-GFP mEpiSCs [1]) turn out when O=C1O[C@H]([C@@H](O)CO)C(O)=C1O [ascorbic acid] was run?
**A.** increased

**Q.** With bFGF: basic fibroblast growth factor as the molecule, how does the “LIF induced Xi-reactivation (GFP/CD31 double positive cells)” value (Xi-GFP mEpiSCs [1]) read?
**A.** negative effects

**Q.** lysophosphatidic acid [LPA] was tested. Which “induction of GFP^+ cells” value (Xi-GFP mEpiSCs [1]; N2B27, without LIF) did it give?
**A.** induced GFP^+ cells, albeit less efficiently than with LIF

**Q.** What about the “conversion to cells with features of naïve pluripotency (dome shaped colonies)” value (hiPSCs [2]) of the same molecule?
**A.** converted to cells with characteristics of naïve PSCs

**Q.** What about the “NANOG expression of naive-like cells” value (hiPSCs [2]; antibody staining, FIG. 6) of the same molecule?
**A.** continue to express NANOG

**Q.** And the “toxicity to primed pluripotent stem cells” value ([4]; 50 nM and 100 nM)?
**A.** toxic

**Q.** And the “concentration at which cell toxicities were observed” value ([4]; FIG. 8)?
**A.** ≥ 10 nM

B1: Activin A: cytokine required for maintaining primed pluripotency in mEpiSCs (protein, UniProt Q04998 309-424, looked up)
Inhibin beta A chain: GLECDGKVNICCKKQFFVSFKDIGWNDWIIAPSGYHANYCEGECPSHIAGTSGSSLSFHSTVINHYRMRGHSPFANLKSCCVPTKLRPMSMLYYDDGQNIIKKDIQNMIVEECGCS
modifications: Inhibin beta A chain
**Q.** What does the source list for B1?
**A.** numbers of GFP+ clusters (Xi-GFP mEpiSCs [5]): significantly reduced; LIF induced Xi-reactivation (GFP/CD31 double positive cells) (Xi-GFP mEpiSCs [1]): negative effects

B2: BMP4: bone morphogenetic protein (protein, UniProt P12644 293-408, looked up)
Bone morphogenetic protein 4: SPKHHSQRARKKNKNCRRHSLYVDFSDVGWNDWIVAPPGYQAFYCHGDCPFPLADHLNSTNHAIVQTLVNSVNSSIPKACCVPTELSAISMLYLDEYDKVVLKNYQEMVVEGCGCR
**Q.** Which “% of GFP/CD31 double positive cells compared with LIF alone” value (Xi-GFP mEpiSCs [1]) does the source give for B2 here?
**A.** dramatically increased

**Q.** And the “GFP/CD31 double positive cells” value (Xi-GFP mEpiSCs [1]; alone in N2B27 basal medium (without bFGF or Activin A), data not shown)?
**A.** did not induce GFP/CD31 double positive cells

Source: patent US20180142206A1, “REVERSION OF PRIMED PLURIPOTENT STEM CELLS TO NAIVE PLURIPOTENT STEM CELLS” (The J. David Gladstone Institutes, A Testamentary Trust …, priority 2015, published 2018)
